From patent US8703813B2, “Compound with spiro chiral carbon backbone, preparation method thereof, and pharmaceutical composition containing the same” (SNU R & DB Foundation, priority 2008, dated 2014) come the findings set out here.

The nature of data set [1]: Solubility in organic solvents. It counts as physicochemical.
Data set [2] deals with C3H/10T1/2 cells. The data set is described as follows: Adipocyte differentiation inhibitory ability (Oil Red O staining). It counts as cell-based, mouse. Conditions: C3H/10T1/2, 10 μg/ml. The procedure:
C3H/10T1/2 cells, which are mouse mesenchymal progenitor cells purchased from ATCC, were diluted in DMEM (Dulbecco's Modified Eagle Medium) medium containing 5.958 g/L HEPES, 3.7 g/L sodium bicarbonate and 10% FBS (fetal bovine serum), and cultured in 24-well culture plates at a density of 4×10^4 cells/well, in the presence of 5% CO2 at 37° C. for 2 days. When the cultured cells were grown to 90˜100% confluency in the culture plates, the cells were cultured in DMEM medium containing 10% FBS, to which 5μ/ml insulin, 1 μM dexamethason, and 5 μM troglitazone were added, in the presence of 5% CO2 at 37° C. for 8 days, to induce differentiation into adipocyte. The medium was exchanged every other day during differentiation. The C3H/10T1/2 cell line, in which differentiation into the adipocyte was induced, was fixed with 3.7% formaldehyde at room temperature for 30 minutes. An oil Red O solution dissolved in isopropanol at a concentration of 0.5% was diluted in distilled water at a ratio of 6:4, filtered through a 0.2 μm filter, and poured to the fixed cell line, which was stained for 1 hour. In order to observe only the cells differentiated into the adiopocyte, the dye solution was removed and the cells were washed with distilled water two times.
116V specimen extracted from sponge was dissolved in DMSO solvent, and allowed to treat C3H/10T1/2 cell lines, which are mouse mesenchymal progenitor cells, at concentrations of 1, 2.5, 5, 10, and 20 μg/ml. […] Then, after specimens of the compound 1 (1163), the compound 2 (1162), the compound 3 (1161), and the compound 4 (1164), which were purely separated from the 116V and 116VI species were obtained, the same experiment was performed. […] Remarkable cytotoxicity was not observed in each of the specimens during differentiation of adipocytes (FIG. 8).

In data set [3] the test system is C3H/10T1/2 cells. The data set is described as follows: Osteoblast formation activity (calcium deposition assay, Alizarin Red S). It counts as cell-based, mouse. Conditions: for osteoblast differentiation ability: C3H/10T1/2, calcium deposition; for concentration of maximum osteoblast differentiation activity: C3H/10T1/2, tested 1-20 ug/ml; for concentration at which cytotoxicity was observed: C3H/10T1/2 during osteoblast differentiation. The protocol: C3H/10T1/2 cells, which are mouse mesenchymal progenitor cells purchased from ATCC, were diluted in DMEM (Dulbecco's Modified Eagle Medium) medium containing 5.958 g/L HEPES, 3.7 g/L sodium bicarbonate, and 10% FBS (fetal bovine serum), and cultured in 24-well culture plates at a density of 4×10^4 cells/well, in the presence of 5% CO2 at 37° C. for 2 days. The cultured cells were grown to 90˜100% confluency in the culture plates, the cells were cultured in DMEM medium containing 10% FBS, to which 10 mM of β-glycerophosphate and 50μ/ml of ascorbic acid were added, in the presence of 5% CO2 at 37° C. for 6 days, to induce differentiation into osteoblast. The medium was exchanged every other day during differentiation. The C3H/10T1/2 cell line, in which differentiation into the osteoblast was induced, was washed with PBS (Phosphate Buffered Saline) once, and fixed with 70% ethanol at 20° C. for 1 hour. The cells after fixing were washed with cold PBS three times, and stained with 40 mM Alizarin Red S dye solution at room temperature for 20 minutes. The dye solution was removed and the cells were washed with distilled water three times in order to selectively observe only the cells differentiated into the osteoblast.
An aliquot 116V and an aliquot 116VI extracted and partitioned from sponges are dissolved in a DMSO solvent, and used to treat the C3H/10T1/2 cell line, mesenchymal progenitor cells, at concentrations of 1, 2.5, 5, 10, and 20 ug/ml. […] Since then, the same experiment was performed on the compound (1163), the compound 2 (1162), the compound 3 (1161), and the compound 4 (1164), which were purely separated from the aliquots 116V and 116VI, and as a result, it could be confirmed that the osteoblast differentiation ability was increased in the compounds 1, 3, and 4. […] To study a mechanism with respect to osteoblast differentiation ability, the C3H/10T1/2 cell lines were treated with the compound 1 and the compound 4 for 6 days, respectively. […] Also, the C3H/10T1/2 cell lines were treated with the compound 1 and the compound 4 for 6 days, respectively. […] Furthermore, it could be ascertained that combining of Runx2 and TAZ proteins was increased by treatment of the compounds and thus the activity of Runx2-meditated transcription was increased. The compound 5, which is an ester derivative of the compound 1 (1163), was synthesized in order to prepare a material having more excellent bioactivity, and the structure of the compound 5 obtained thus was determined. […] Therefore, the compounds of the present invention and derivatives thereof are expected to promote the differentiation of the osteoblast and thus play an innovative role in treatment of osteoporosis.

The subject of another data set is Runx2, Osteocalcin, Msx2. The data set is described as follows: Real time PCR of osteoblast differentiation mark factors. It counts as cell-based, mouse. Conditions: C3H/10T1/2 treated for 6 days, RTPCR. The protocol:
(§1) An aliquot 116V and an aliquot 116VI extracted and partitioned from sponges are dissolved in a DMSO solvent, and used to treat the C3H/10T1/2 cell line, mesenchymal progenitor cells, at concentrations of 1, 2.5, 5, 10, and 20 ug/ml. […] Since then, the same experiment was performed on the compound (1163), the compound 2 (1162), the compound 3 (1161), and the compound 4 (1164), which were purely separated from the aliquots 116V and 116VI, and as a result, it could be confirmed that the osteoblast differentiation ability was increased in the compounds 1, 3, and 4. […] To study a mechanism with respect to osteoblast differentiation ability, the C3H/10T1/2 cell lines were treated with the compound 1 and the compound 4 for 6 days, respectively. […] Also, the C3H/10T1/2 cell lines were treated with the compound 1 and the compound 4 for 6 days, respectively. […] Furthermore, it could be ascertained that combining of Runx2 and TAZ proteins was increased by treatment of the compounds and thus the activity of Runx2-meditated transcription was increased. The compound 5, which is an ester derivative of the compound 1 (1163), was synthesized in order to prepare a material having more excellent bioactivity, and the structure of the compound 5 obtained thus was determined. […]

The test system of a further data set is Runx2 and TAZ. Briefly: Western blot of osteoblast differentiation mark factors. It counts as cell-based, mouse. Conditions: C3H/10T1/2 treated for 6 days. The protocol: as §1

As to `C=C(C)C(O)CC/C(C)=C/[C@H]1CC(C)=C[C@@]2(C=C(CO)[C@@H]3CC(=O)C(C)=C[C@@H]3O2)O1` (some centres unmarked) [Compound 10], the Solubility result in data set [1] is “Easily Dissolved in Organic Solvent of Acetone, Methanol, DMSO, etc”.

Consider `CC(=O)OCC1=C[C@@]2(C=C(C)C[C@H](/C=C(\C)CCC=C(C)C)O2)O[C@H]2C=C(C)C(=O)C[C@@H]12` [Compound 2], for which the adipocyte differentiation ability entry in the data set with C3H/10T1/2 cells [2] was “remarkably decreased”. For the same compound, the Solubility result in data set [1] is on record as “Easily Dissolved in Organic Solvent of Acetone, Methanol, DMSO, etc”.

As for `CC(=O)O[C@@H]1C[C@H]2C(CO)=C[C@@]3(C=C(C)C[C@H](/C=C(\C)CCC=C(C)C)O3)O[C@H]2C=C1C` [Compound 3], in the data set on C3H/10T1/2 cells [3], the osteoblast differentiation ability result is given as “increased”, the “concentration of maximum osteoblast differentiation activity” value turned out to be 2.5 µg/mL and the “concentration at which cytotoxicity was observed” value is greater than 2500 ng/mL. Besides, the adipocyte differentiation ability result in the data set on C3H/10T1/2 cells [2] is listed as “remarkably decreased”. Further, the Solubility entry in data set [1] is listed as “Easily Dissolved in Organic Solvent of Acetone, Methanol, DMSO, etc”.

For `CC(=O)O[C@H]1C[C@H]2C(CO)=C[C@@]3(C=C(C)C[C@H](/C=C(\C)CCC=C(C)C)O3)O[C@H]2C=C1C` [Compound 4], the “transcription degree of differentiation mark factors (Runx2, Osteocalcin, Msx2, etc.)” value in the data set on Runx2, Osteocalcin, Msx2 is recorded as “remarkably increased”. In addition, in the data set on C3H/10T1/2 cells [3], the osteoblast differentiation ability result was “increased”, the “concentration of maximum osteoblast differentiation activity” value worked out at 5 µg/mL and the “concentration at which cytotoxicity was observed” value was greater than 5000 ng/mL. Also, the adipocyte differentiation ability result in the data set on C3H/10T1/2 cells [2] is recorded as “remarkably decreased”. The Solubility result in data set [1] is listed as “Easily Dissolved in Organic Solvent of Acetone, Methanol, DMSO, etc”. In the data set with Runx2 and TAZ, the “protein expression of Runx2 and TAZ” value is “increased”.

As to `CC1=C[C@@]2(C=C(CO)[C@@H]3CC(=O)C(C)=C[C@@H]3O2)O[C@@H](/C=C(\C)C/C=C/C(C)(C)O)C1` [Compound 9], in data set [1], the Solubility entry is reported as “Easily Dissolved in Organic Solvent of Acetone, Methanol, DMSO, etc”.

As to `CCCC(=O)OCC1=C[C@@]2(C=C(C)C[C@H](/C=C(\C)CCC=C(C)C)O2)O[C@H]2C=C(C)C(=O)C[C@@H]12` [Compound 5], the osteoblast differentiation ability entry in the data set with C3H/10T1/2 cells [3] is listed as “promoted differentiation of the osteoblast in a similar degree as that of the compound 1”.
